Reference: patent US11230586B2, “Exosome production method” (TOAGOSEI CO., LTD., priority 2019, dated 2022)
Ends that are not written are not given here.

Experiments:
HeLa cells [1] = experiment: Calculation of number of exosomes in exosome fractions from treated HeLa cells (NanoSight LM10); assay type: cell-based, human
From the text: (§1) More specifically, a currently commercially available human cervical cancer cell line (HeLa cells) was used as the test cultured cells.
(§2) α-MEM medium containing 10% FBS (product of Gibco) was used to culture the HeLa cells. Furthermore, FBS free of native exosomes derived from animal serum was used for the FBS.
(§3) A suitable amount of medium containing FBS at a concentration of 10% was placed in cell culture dishes having a diameter of 100 mm followed by seeding with HeLa cells so that the number of cells per dish was about 2×10^6 cells.
(§4) Next, the cells were cultured in a-MEM medium containing 10% FBS having the sample peptide suspended therein at a concentration of 5 μM under conditions of 5% CO2 at 37° C. for 48 hours.
Subsequently, the culture broth was obtained and subjected to ultracentrifugation to isolate and recover the exosomes. More specifically, centrifugation was carried out continuously as described below under conditions of 4° C. […]
The number of exosomes was calculated for each of the three exosome fractions produced as described above. More specifically, the numbers of exosome particles in the exosome fractions were counted followed by calculating the number of exosomes using NanoSight LM10 (Malvern Panalytical Ltd.).

HeLa cells [2] = experiment: Measurement of amount of protein per exosome particle (BCA assay, equation (1)); assay type: cell-based, human
From the text: More specifically, the analyzing step preferably includes, for example, measurement of the total of amount of protein P (μg/mL) contained in the exosome fraction. A conventionally known method (such as BCA assay) can be used without any particular limitations to measure the amount of proteins. As a result, the average amount of protein per exosome, EP (μg), can be calculated based on the following equation (1). […]
as §1, §2, §3, §4
Subsequently, the culture broth was obtained and subjected to ultracentrifugation to isolate and recover the exosomes. […]
The amount of protein was measured for each of the three exosome fractions produced as described above. […]

In the case of “FIGNLALSDLLAGVAYTANLLLKKRTLRKNDRKKR-CONH2 (FIGNLALSDLLAGVAYTANLLLKKRTLRKNDRKKR-NH2) [Example]”, the Exosome concentration (HeLa cells [1]; HeLa cells cultured 48 hours with 5 μM test substance, exosome fraction by ultracentrifugation, suspended in PBS) is reported as 8.31e+08 mL⁻¹, the “number of exosomes (change, in words)” value (HeLa cells [1]; HeLa cells, 5 μM, 48 hours, versus Comparative Examples) is reported as “increase considerably” and the Amount of protein (HeLa cells [2]; HeLa cells cultured 48 hours with 5 μM test substance, total protein by BCA divided by particle number) is reported as 5.9 ×10^−8 μg/exosome. For the same substance, the “amount of proteins in the exosomes (change, in words)” value (HeLa cells [2]; HeLa cells, 5 μM, 48 hours, in comparison with Comparative Example 1 and Comparative Example 2) was “decreased considerably”.
